Here are results for 7 molecules from publication PMC6742494 (ACS infectious diseases, 2016).

As usually defined, the IC50 is the concentration at which inhibition is half-maximal. As usually defined, the half-life is how long it takes for the measured level to halve. High values mean slow loss, low ones fast loss.

Data set [1] concerns M. smegmatis mc^2155. Type of data set: cell-based, Mycobacterium smegmatis. Conditions: pH 5.5.
The subject of data set [2] is Mtb H37Rv. In words: microbe, parasite or virus in culture. Format: cell-based, Mycobacterium tuberculosis. Conditions: for MIC99: Mycobacterium tuberculosis, H37RV.
Data set [3] relates to intracellular Mtb H37Rv in THP-1 cells. Type of data set: cell-based, Mycobacterium tuberculosis.
Data set [4] has as its system THP-1 cells. In words: cells. Format: cell-based. Conditions: Homo sapiens, THP-1, 18 h, read-out: IC50 THP-1.
In data set [5] the test system is normal human foreskin fibroblast (HFF) cells. In words: cells. Type of data set: cell-based. Conditions: 48 h, read-out: IC50 HFF.
The subject of data set [6] is Mtb T 21 (INH-sensitive). Put plainly: microbe, parasite or virus in culture. Format: cell-based. The settings on record: Mycobacterium tuberculosis.
In data set [7] the test system is Mtb Beijing 26 (RIF-sensitive). Put plainly: microbe, parasite or virus in culture. Type of data set: cell-based. The settings on record: Mycobacterium tuberculosis.
For data set [8], the system named is Mtb Haarlem 23 (RIF-sensitive). In words: microbe, parasite or virus in culture. Format: cell-based. Conditions: Mycobacterium tuberculosis.
The test system of data set [9] is PBS-starved H37Rv. Format: cell-based, Mycobacterium tuberculosis.
In data set [10] the test system is M. smegmatis mc^2155. Put plainly: microbe, parasite or virus in culture. Conditions: Mycolicibacterium smegmatis. Type of data set: cell-based, Mycobacterium smegmatis.
The subject of data set [11] is M. bovis BCG. Put plainly: microbe, parasite or virus in culture. Format: cell-based. Conditions: Mycobacterium tuberculosis variant bovis BCG.
For data set [12], the system named is M. smegmatis mc^2155. Type of data set: cell-based, Mycobacterium smegmatis.
For data set [13], the system named is M. bovis BCG. Format: cell-based, Mycobacterium bovis.
Data set [14] deals with M. bovis BCG. Format: cell-based, Mycobacterium bovis. This is another data set of the same source.
Data set [15] concerns Escherichia coli. In words: microbe, parasite or virus in culture. Type of data set: cell-based.
Data set [16] has as its system Staphylococcus aureus. In words: microbe, parasite or virus in culture. Type of data set: cell-based.
For data set [17], the system named is Bacillus subtilis. In words: microbe, parasite or virus in culture. Format: cell-based.
Data set [18] deals with Pseudomonas aeruginosa. In words: microbe, parasite or virus in culture. Format: cell-based.
The conditions of data set [19]: human.
The conditions of data set [20]: mouse; for Clint: microsomes.
Data set [21] can be described thus: in vitro. Conditions: human, microsomes.
Data set [22] is described as follows: in vitro. The settings on record: mouse, microsomes.
Data set [23] is described as follows: in vitro. Conditions: human, hepatocytes.
The subject of data set [24] is M. bovis BCG. Type of data set: cell-based, Mycobacterium bovis. The source holds these as a separate data set.
The test system of data set [25] is M. smegmatis mc^2155. The settings on record: cited from earlier work.

Values after ≈ are worked out from the molar mass of the structure shown. Values joined by “and” are separate entries in the source; they are usually repeats but may differ in a detail not shown here. Equal entries are not always repeated. Where two headings read alike, the source gives them in different places.

As for `N#CC(C#N)=NNc1cccc(Cl)c1` [CCCP, carbonyl cyanide m-chlorophenylhydrazone], in [1], the “intrabacterial pH” value is recorded as 5.5.
As to `FC(F)(F)Oc1ccc(Oc2ccc(CNCCNC3C4CC5CC(C4)CC3C5)cc2)cc1` (centres unmarked) [Compound 8, N^1-adamantan-2-yl-N^2-(4-(4-(trifluoro-methoxy)phenoxy)benzyl)ethane-1,2-diamine], the MIC99 was 2.5 µM in [2] and 1.2 µg/mL in data set [2] (120 h, read-out: MIC (MIC99)). Besides, the “reduction in bacterial cfu compared to untreated infected macrophages” value in [3] is “two-log reduction”. In addition, the concentration for half-maximal inhibition (IC50) in [4] amounted to 4.4 µg/mL (≈ 9.55 µM); in data set [5] it was 16.1 µg/mL (≈ 35 µM); in data set [15], 6.25 µg/mL (≈ 13.6 µM); in [16] it was 6.25 µg/mL (≈ 13.6 µM); in data set [17], 6.25 µg/mL (≈ 13.6 µM); in data set [18] it was 12.5 µg/mL (≈ 27.1 µM). The MIC in [6] is 0.58 µg/mL (≈ 1.26 µM); in [7], 1.2 µg/mL (≈ 2.61 µM); in data set [8], 1.2 µg/mL (≈ 2.61 µM); in data set [10], 9.21 µg/mL and 20 µM; in data set [11] it was 0.575 µg/mL and 1.25 µM. The “reduction in viability of non-replicating Mtb” value in [9] is recorded as 3 log. Also, the “sensitivity of non-replicating Mtb” value in [9] was “sensitive”. Moreover, the “effect on ΔΨ (red / green fluorescence ratio of DiOC2)” value in data set [12] is on record as “rapid depletion of ΔΨ”. Further, the “intrabacterial pH” value in data set [1] was around 7. The “effect on ΔpH” value in [13] is recorded as “None of the concentrations tested reduced ΔpH”. The “effect on intracellular ATP” value in data set [14] was “reduces intracellular ATP in a dose-dependent manner”. The “Predicted EH” value is 0.144 in [19] and 0.557 in data set [20]. Moreover, the Clint in data set [20] was determined as 113 mL/min. For the same molecule, the half-life is 231 min in [21], 24.1 min in data set [22] and 190 min in data set [23].
Consider `CC[C@@H](CO)NCCN[C@@H](CC)CO` [EMB, ethambutol], for which the MIC99 in data set [2] (120 h, read-out: MIC (MIC99)) amounted to 2 µg/mL. Further, the results for the MIC in data set [6], in data set [7] and in [8] were 0.5 µg/mL (≈ 2.45 µM), 1 µg/mL (≈ 4.89 µM) and 1 µg/mL (≈ 4.89 µM), respectively. Besides, the “sensitivity of non-replicating Mtb” value in data set [9] was “tolerant”.
As to `NNC(=O)c1ccncc1` [INH, isoniazid], the “1×MIC (in vitro MIC)” value in data set [2] was determined as 0.05 µg/mL. Further, in data set [4], the IC50 was determined as 7000 µg/mL (≈ 51000 µM). Moreover, the MIC was 0.05 µg/mL (≈ 0.365 µM) in data set [6], 0.025 µg/mL (≈ 0.182 µM) in data set [7] and 0.025 µg/mL (≈ 0.182 µM) in data set [8]. Further, in data set [9], the “sensitivity of non-replicating Mtb” value is on record as “tolerant”.
For `Cc1ncc2n1-c1ccc(Cl)cc1C(c1ccccc1F)=NC2` [Midazolam, midazolam], the “Predicted EH” value is 0.920 in data set [19] and 0.924 in data set [20]. Also, the Clint in data set [19] (microsomes) is 239 mL/min; in data set [20], 1130 mL/min. Besides, the half-life in data set [21] was found to be 3.35 min; in data set [22], 2.41 min.
As for `CO[C@H]1/C=C/O[C@@]2(C)Oc3c(C)c(O)c4c(O)c(c(/C=N/N5CCN(C)CC5)c(O)c4c3C2=O)NC(=O)/C(C)=C\C=C\[C@H](C)[C@H](O)[C@@H](C)[C@@H](O)[C@@H](C)[C@H](OC(C)=O)[C@@H]1C` [RIF, rifampicin], the “1×MIC (in vitro MIC)” value in [2] was found to be 0.025 µg/mL. Also, the IC50 in data set [4] was found to be 240 µg/mL (≈ 292 µM). The MIC in data set [6], in data set [7] and in data set [8] was 0.0125 µg/mL (≈ 0.0152 µM) throughout. In [9], the “sensitivity of non-replicating Mtb” value was “tolerant”.
As for `CC(C)=CCC/C(C)=C/CNCCNC1C2CC3CC(C2)CC1C3` (centres unmarked) [SQ109], in data set [2], the “MIC (MIC99)” value is 1.6 µg/mL (≈ 4.84 µM). Moreover, in [2] (120 h, read-out: MIC (MIC99)), the MIC99 stood at 1.56 µg/mL. Moreover, in [24], the “effect on ΔΨ” value is “rapidly deplete ΔΨ”. Further, the “Predicted EH” value in data set [19] was 0.929; in [20], 0.926. The molecule also registered a Clint in data set [20] of 1118 mL/min. Besides, the “effect on ΔΨ and ΔpH” value in data set [25] was “rapidly depleted both the transmembrane potential (ΔΨ) and the chemical proton gradient (ΔpH)”. Further, the half-life was 2.97 min in data set [21] and 2.44 min in [22].
